This passage reports inhibition results from patent publication US9957251B2 (Takeda Pharmaceutical Company Limited, priority 2014, dated 2018).

SMILES strings stand for the structures.

Test [1] relates to human multiple myeloma RPMI8226 cells. The experiment in a line: Inhibitory activity against human multiple myeloma RPMI8226 cell growth (CellTiter-Glo). In kind it is cell-based. As to conditions: Homo sapiens, RPMI-8226, 192 h, 1 μM of the test compound, cultured for 8 days; read-out: Percent inhibition of RPMI8226 cell growth (%). On the procedure: The compound of the present invention was evaluated for its inhibitory activity against human multiple myeloma RPMI8226 cell growth by the following method.
A suspension of human multiple myeloma RPMI8226 cells (purchased from the Health Protection Agency) was inoculated at 40 μL (300 cells/well) to a 384-well plate and cultured at 37° C. for 1 day in a 5% CO2 incubator. After the culture, each test compound solution was added thereto at a test concentration of 1 μM using TECAN D300, and the cells were further cultured for 8 days. After the culture, CellTiter-Glo™ Luminescent Cell Viability Assay reagent (Promega) was added at 40 μL/well to a 384-well plate, and the amount of luminescence was measured using a luminometer. Inhibitory activity against human multiple myeloma RPMI8226 cell growth (percent inhibition (%)) of the test compound was calculated according to the following formula, which is based on the hypothesis that the amount of residual ATP reflects the number of cells. In this formula, 100% control represents the amount of luminescence from a well with only 0.1% DMSO added. Percent inhibition (%)=(1−(amount of luminescence of the test compound)÷(100% control))×100

The target of another test is T1, CDK8/CycC (Homo sapiens, UniProt P49336).
T1 construct: purchased Carna Biosciences
The experiment in a line: CDK8 inhibitory activity (TR-FRET, Kinase Tracer-236 displacement). As to conditions: 1 μM of the test compound; read-out: Percent inhibition of CDK8 activity (%). In kind it is binding. On the procedure: (§1) The compound of the present invention was evaluated for its CDK8 inhibitory activity and CDK19 inhibitory activity by the following method. […] The primary diluted solution was dispensed in the amount of 2 μL/well to a 384-well plate, and then, a mixed solution of Eu^3+ Cryptate conjugated mouse monoclonal antibody anti-glutathione S-transferase (Cisbio) diluted 267-fold with an assay buffer and 60 nM Kinase Tracer-236 (Life technologies) was added thereto at 2 μL/well. After the addition, each kinase solution (84 ng/mL CDK8/CycC (Carna Biosciences) diluted with an assay buffer used for CDK8 inhibitory activity measurement, and 87 ng/mL CDC2L6/CycC (Carna Biosciences) diluted with an assay buffer used for CDK19 inhibitory activity measurement) was further added thereto at 2 μL/well. After the addition, the plate was left standing at room temperature for 1 hour, and then, the fluorescence intensity (excitation wavelength 320 nm, fluorescence wavelength 615 nm, 665 nm, delay time 50 μsec) was measured using an EnVision plate reader (PerkinElmer).

For the next test, the target named is T2, CDK19 (CDC2L6/CycC) (Homo sapiens, UniProt Q9BWU1).
T2 construct: purchased Carna Biosciences
The experiment in a line: CDK19 inhibitory activity (TR-FRET, Kinase Tracer-236 displacement). In kind it is binding. As to conditions: 1 μM of the test compound; read-out: Percent inhibition of CDK19 activity (%). On the procedure:
as §1

T2 sequence (Q9BWU1 whole entry): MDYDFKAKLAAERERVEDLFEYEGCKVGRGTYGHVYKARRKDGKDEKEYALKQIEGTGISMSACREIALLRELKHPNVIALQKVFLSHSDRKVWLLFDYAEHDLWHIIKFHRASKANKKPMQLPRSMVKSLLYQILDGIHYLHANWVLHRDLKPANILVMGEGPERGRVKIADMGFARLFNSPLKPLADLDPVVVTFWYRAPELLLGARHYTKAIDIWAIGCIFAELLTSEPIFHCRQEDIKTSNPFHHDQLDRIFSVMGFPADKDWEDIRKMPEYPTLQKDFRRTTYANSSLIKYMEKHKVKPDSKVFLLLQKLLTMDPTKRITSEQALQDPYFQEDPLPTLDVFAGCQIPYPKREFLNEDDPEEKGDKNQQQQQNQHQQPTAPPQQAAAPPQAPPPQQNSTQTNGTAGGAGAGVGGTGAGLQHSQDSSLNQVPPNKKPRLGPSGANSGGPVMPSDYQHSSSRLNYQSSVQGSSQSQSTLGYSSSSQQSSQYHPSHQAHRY
T2 sequence (P24863 whole entry partner): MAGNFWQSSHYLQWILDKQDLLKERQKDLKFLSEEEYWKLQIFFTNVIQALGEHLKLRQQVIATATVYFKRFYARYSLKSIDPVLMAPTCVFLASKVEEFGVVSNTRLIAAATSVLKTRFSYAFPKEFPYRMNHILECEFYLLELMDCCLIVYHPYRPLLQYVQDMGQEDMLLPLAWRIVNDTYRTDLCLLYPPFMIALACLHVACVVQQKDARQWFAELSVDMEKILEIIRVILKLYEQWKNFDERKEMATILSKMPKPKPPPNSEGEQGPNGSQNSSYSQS
T1 sequence (P49336 whole entry): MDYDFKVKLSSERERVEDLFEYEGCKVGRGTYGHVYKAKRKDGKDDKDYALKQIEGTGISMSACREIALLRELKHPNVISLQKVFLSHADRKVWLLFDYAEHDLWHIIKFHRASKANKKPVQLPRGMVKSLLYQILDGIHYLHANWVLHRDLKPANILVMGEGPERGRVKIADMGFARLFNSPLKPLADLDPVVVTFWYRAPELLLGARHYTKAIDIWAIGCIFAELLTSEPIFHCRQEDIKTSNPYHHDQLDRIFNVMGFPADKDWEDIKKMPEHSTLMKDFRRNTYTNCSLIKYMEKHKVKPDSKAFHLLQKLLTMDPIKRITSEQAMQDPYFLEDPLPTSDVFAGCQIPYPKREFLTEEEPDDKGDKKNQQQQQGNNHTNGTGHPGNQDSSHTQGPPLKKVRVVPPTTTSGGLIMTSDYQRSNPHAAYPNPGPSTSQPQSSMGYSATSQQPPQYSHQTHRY
T1 sequence (P24863 whole entry partner): as the sequence (P24863 whole entry partner) above

For `Cn1cc(-c2ccncc2/C=C/C(=O)Nc2ccc(CN3CCOCC3)c(C#N)c2)cn1` [Example 150, (2E)-N-(3-Cyano-4-(morpholin-4-ylmethyl)phenyl)-3-(4-(1-methyl-1H-pyrazol-4-yl)pyridin-3-yl)acrylamide], the inhibition at 1 µM was 54% in test [1], 100% on CDK8/CycC and 99% at CDK19 (CDC2L6/CycC).
For `Cc1ncc(-c2ccncc2/C=C/C(=O)Nc2ccc(CN3CCOCC3)cc2)s1` [Example 151, (2E)-3-(4-(2-methyl-1,3-thiazol-5-yl)pyridin-3-yl)-N-(4-(morpholin-4-ylmethyl)phenyl)acrylamide] the same measures were 54%, 95% and 95%.
For `Cn1cc(-c2ccncc2/C=C/C(=O)Nc2ccc3cnccc3c2)cn1` [Example 154, (2E)-N-(isoquinolin-6-yl)-3-(4-(1-methyl-1H-pyrazol-4-yl)pyridin-3-yl)acrylamide], the inhibition at 1 µM was determined as 62% in test [1], 96% at CDK8/CycC and 99% at CDK19 (CDC2L6/CycC).
For the molecule `Cn1cc(-c2ccncc2/C=C/C(=O)Nc2ccc3cc[nH]c3c2)cn1` [Example 155, (2E)-N-(1H-indol-6-yl)-3-(4-(1-methyl-1H-pyrazol-4-yl)pyridin-3-yl)acrylamide], the inhibition at 1 µM was 54% in test [1], 98% at CDK8/CycC and 93% at CDK19 (CDC2L6/CycC).
Consider `Cn1cc(-c2ccncc2/C=C/C(=O)Nc2ccc3ccncc3c2)cn1` [Example 156, (2E)-N-(isoquinolin-7-yl)-3-(4-(1-methyl-1H-pyrazol-4-yl)pyridin-3-yl)acrylamide], for which the inhibition at 1 µM in test [1] was determined as 55%; on CDK8/CycC, 94%; at CDK19 (CDC2L6/CycC), 94%.
For `Cn1cc(-c2ccncc2/C=C/C(=O)Nc2ccc(N3CCOCC3)c(Cl)c2)cn1` [Example 159, (2E)-N-(3-chloro-4-(morpholin-4-yl)phenyl)-3-(4-(1-methyl-1H-pyrazol-4-yl)pyridin-3-yl)acrylamide], the figures for the inhibition at 1 µM (in test [1]; at CDK8/CycC; on CDK19 (CDC2L6/CycC)) were 60%, 102% and 100%, respectively.
In the same order, the values of `Cn1cc(-c2ccncc2/C=C/C(=O)Nc2ccc3c(c2)OCO3)cn1` [Example 163, (2E)-N-(1,3-benzodioxol-5-yl)-3-(4-(1-methyl-1H-pyrazole-4-yl)pyridin-3-yl)acrylamide] are 53%, 96% and 94%.
In the same order, the values of `Cn1cc(-c2ccncc2/C=C/C(=O)Nc2ccc3c(c2)OCCO3)cn1` [Example 168, (2E)-N-(2,3-dihydro-1,4-benzodioxin-6-yl)-3-(4-(1-methyl-1H-pyrazol-4-yl)pyridin-3-yl)acrylamide] are 59%, 100% and 97%.
For the molecule `Cn1cc(-c2ccncc2/C=C/C(=O)Nc2ccc3ncsc3c2)cn1` [Example 169, (2E)-N-(1,3-benzothiazol-6-yl)-3-(4-(1-methyl-1H-pyrazol-4-yl)pyridin-3-yl)acrylamide], the inhibition at 1 µM in test [1] came out at 53%; at CDK8/CycC, 94%; at CDK19 (CDC2L6/CycC), 90%.
In the same order, the values of `Cn1cc(-c2ccncc2/C=C/C(=O)Nc2ccc3c(c2)CCO3)cn1` [Example 172, (2E)-N-(2,3-dihydro-1-benzofuran-5-yl)-3-(4-(1-methyl-1H-pyrazol-4-yl)pyridin-3-yl)acrylamide] are 55%, 96% and 95%.
`Cn1cc(-c2ccncc2/C=C/C(=O)Nc2ccc3c(ccn3C)c2)cn1` [Example 175, (2E)-N-(1-Methyl-1H-indol-5-yl)-3-(4-(1-methyl-1H-pyrazol-4-yl)pyridin-3-yl)acrylamide]: the inhibition at 1 µM came to 55% in test [1], 98% at CDK8/CycC and 99% at CDK19 (CDC2L6/CycC).
Consider `Cn1cc(-c2ccncc2/C=C/C(=O)Nc2ccc3c(c2)CCC3=O)cn1` [Example 176, (2E)-3-(4-(1-methyl-1H-pyrazol-4-yl)pyridin-3-yl)-N-(1-oxo-2,3-dihydro-1H-inden-5-yl)acrylamide], for which the inhibition at 1 µM in test [1] came to 54%; on CDK8/CycC, 92%; at CDK19 (CDC2L6/CycC) it was 87%.
Turning to `Cn1cc(-c2ccncc2/C=C/C(=O)Nc2cccc(-c3cccnc3)c2)cn1` [Example 182, (2E)-3-(4-(1-methyl-1H-pyrazol-4-yl)pyridin-3-yl)-N-(3-(pyridin-3-yl)phenyl)acrylamide], the inhibition at 1 µM in test [1] turned out to be 58%; at CDK8/CycC it was 84%; on CDK19 (CDC2L6/CycC), 78%.
As for `Cn1cc(-c2ccncc2/C=C/C(=O)Nc2ccc3c(c2)CCCC3=O)cn1` [Example 191, (2E)-3-(4-(1-methyl-1H-pyrazol-4-yl)pyridin-3-yl)-N-(5-oxo-5,6,7,8-tetrahydronaphthalen-2-yl)acrylamide], the inhibition at 1 µM in test [1] is 56%; at CDK8/CycC, 96%; on CDK19 (CDC2L6/CycC), 92%.
In the same order, the values of `O=C(/C=C/c1cnccc1-c1cncs1)Nc1ccc(CN2CCOCC2)cc1` [Example 195, (2E)-N-(4-(morpholin-4-ylmethyl)phenyl)-3-(4-(1,3-thiazol-5-yl)pyridin-3-yl)acrylamide] are 52%, 94% and 97%.
In the same order, the values of `O=C(/C=C/c1cnccc1-c1ccns1)Nc1ccc(CN2CCOCC2)cc1` [Example 196, (2E)-N-(4-(morpholin-4-ylmethyl)phenyl)-3-(4-(1,2-thiazol-5-yl)pyridin-3-yl)acrylamide] are 54%, 101% and 98%.
Consider `CN1CCc2ccc(NC(=O)/C=C/c3cnccc3-c3cnn(C)c3)cc2C1` [Example 212, (2E)-3(4-(1-methyl-1H-pyrazol-4-yl)pyridin-3-yl)-N-(2-methyl-1,2,3,4-tetrahydroisoquinolin-7-yl)acrylamide], for which the inhibition at 1 µM came to 52% in test [1], 100% on CDK8/CycC and 98% on CDK19 (CDC2L6/CycC).
As for `CC(=O)n1cc(-c2ccncc2/C=C/C(=O)Nc2ccc(CN3CCOCC3)cc2)cn1` [Example 218, (2E)-3-(4-(1-Acetyl-1H-pyrazol-4-yl)pyridin-3-yl)-N-(4-(morpholin-4-ylmethyl)phenyl)acrylamide], the results for the inhibition at 1 µM (in test [1]; on CDK8/CycC; at CDK19 (CDC2L6/CycC)) were 65%, 96% and 101%, respectively.
Take `COc1ccc(-c2ccncc2/C=C/C(=O)Nc2ccc(CN3CCOCC3)cc2)s1` [Example 220, (2E)-3-(4-(5-methoxy-2-thienyl)pyridin-3-yl)-N-(4-(morpholin-4-ylmethyl)phenyl)acrylamide]: the inhibition at 1 µM in test [1] was 58%; on CDK8/CycC, 93%; on CDK19 (CDC2L6/CycC) it was 96%.
For `COc1ncc(-c2ccncc2/C=C/C(=O)Nc2ccc(CN3CCOCC3)cc2)s1` [Example 221, (2E)-3-(4-(2-Methoxy-1,3-thiazol-5-yl)pyridin-3-yl)-N-(4-(morpholin-4-ylmethyl)phenyl)acrylamide] the same measures were 63%, 99% and 98%.
As for `O=C(/C=C/c1cnccc1-c1ccc2nccn2c1)Nc1ccc(CN2CCOCC2)cc1` [Example 222, (2E)-3-(4-(imidazo[1,2-a]pyridin-6-yl)pyridin-3-yl)-N-(4-(morpholin-4-ylmethyl)phenyl)acrylamide], the inhibition at 1 µM in test [1] was 52%; on CDK8/CycC, 101%; on CDK19 (CDC2L6/CycC), 100%.
Take `CN(C)CCc1ccc(NC(=O)/C=C/c2cnccc2-c2cnn(C)c2)cc1` [Example 226, (2E)-N-(4-(2-(dimethylamino)ethyl)phenyl)-3-(4-(1-methyl-1H-pyrazol-4-yl)pyridin-3-yl)acrylamide]: the figures for the inhibition at 1 µM (in test [1]; on CDK8/CycC; on CDK19 (CDC2L6/CycC)) were 66%, 98% and 98%, respectively.
Consider `Cn1cnc2ccc(-c3ccncc3/C=C/C(=O)Nc3ccc(CN4CCOCC4)cc3)cc21` [Example 234, (2E)-3-(4-(1-methyl-1H-benzimidazol-6-yl)pyridin-3-yl)-N-(4-(morpholin-4-ylmethyl)phenyl)acrylamide], for which the inhibition at 1 µM stood at 65% in test [1], 102% at CDK8/CycC and 102% on CDK19 (CDC2L6/CycC).
